Key:
Assay type in all cases: cell-based
[1] = tested on: Salmonella typhimurium TA98; assay: Ames test (reverse mutation test), strain TA98; settings: for potential to induce reverse mutations, TA98: in the presence of S9 mix
Description: (§1) Metabolites 1 to 3 and Metabolites A to E were each tested herein. The purpose of this test is to evaluate the potential of each metabolite to induce reverse mutations in the standard strains of Salmonella typhimurium (TA98, TA1537, TA100, and TA1535) and Escherichia coli (WP2uvrA), in either the presence or absence of a rat liver metabolic activation system (S9 mix).
(§2) The solvent used herein was dimethyl sulfoxide (DMSO, 100 μL/plate).
(§3) The test was performed by the pre-incubation method with or without S9 mix. When the test was performed without S9 mix, sodium phosphate buffer solution (pH 7.4) was added.
(§4) 0.5 mL of S9 mix or 0.5 mL of 0.1 mol/L sodium phosphate buffer solution (pH 7.4), and 0.1 mL of the bacterial culture solution were added to a test tube containing 0.1 mL of the negative control formulation (DMSO alone), the metabolite, or the positive control formulation. The mixtures were pre-incubated at 37° C. for 20 minutes while shaking. After the pre-incubation period, 2 mL of top agar were added and the mixtures were vortex-mixed and seeded onto plates. Two plates per treatment were used. Each plate was incubated at 37±1° C. for 48 hours or more and the revertant colonies were counted. The mean number of revertant colonies for each treatment plate was then calculated. The presence or absence of growth inhibition due to any antibacterial effect of the test article and precipitation of the test article was observed grossly or under a stereomicroscope. […] Evaluation was based on mean values with no statistical comparisons being used.

[2] = tested on: Salmonella typhimurium TA1537; assay: Ames test (reverse mutation test), strain TA1537
Description: as §1, §2, §3, §4

[3] = tested on: Salmonella typhimurium TA100; assay: Ames test (reverse mutation test), strain TA100; settings: in the presence of S9 mix
Description: as §1, §2, §3, §4

[4] = tested on: Salmonella typhimurium TA1535; assay: Ames test (reverse mutation test), strain TA1535
Description: as §1, §2, §3
(§5) 0.5 mL of S9 mix or 0.5 mL of 0.1 mol/L sodium phosphate buffer solution (pH 7.4), and 0.1 mL of the bacterial culture solution were added to a test tube containing 0.1 mL of the negative control formulation (DMSO alone), the metabolite, or the positive control formulation. The mixtures were pre-incubated at 37° C. for 20 minutes while shaking. After the pre-incubation period, 2 mL of top agar were added and the mixtures were vortex-mixed and seeded onto plates. Two plates per treatment were used. Each plate was incubated at 37±1° C. for 48 hours or more and the revertant colonies were counted. The mean number of revertant colonies for each treatment plate was then calculated. […]

Escherichia coli WP2uvrA = assay: Ames test (reverse mutation test), strain WP2uvrA; settings: in the absence of S9 mix
Description: as §1, §2, §3, §5

| SMILES | Number of revertant colonies TA98 ([1]; S9 mix +, 6.9 μg/plate) | Number of revertant colonies TA98 ([1]; S9 mix +, 21 μg/plate) | Number of revertant colonies TA98 ([1]; S9 mix +, 62 μg/plate) | Number of revertant colonies TA98 ([1]; S9 mix +, 185 μg/plate) | Number of revertant colonies TA98 ([1]; S9 mix +, 556 μg/plate) | Number of revertant colonies TA98 ([1]; S9 mix +, 1667 μg/plate) | Number of revertant colonies TA98 ([1]; S9 mix +, 5000 μg/plate) | Number of revertant colonies TA98 ([1]; S9 mix −, 6.9 μg/plate) | Number of revertant colonies TA98 ([1]; S9 mix −, 21 μg/plate) | Number of revertant colonies TA98 ([1]; S9 mix −, 62 μg/plate) | Number of revertant colonies TA98 ([1]; S9 mix −, 185 μg/plate) | Number of revertant colonies TA98 ([1]; S9 mix −, 556 μg/plate) | Number of revertant colonies TA98 ([1]; S9 mix −, 1667 μg/plate) | Number of revertant colonies TA98 ([1]; S9 mix −, 5000 μg/plate) | potential to induce reverse mutations, TA1537 ([2]; in the presence of S9 mix) | potential to induce reverse mutations, TA98 [1] | potential to induce reverse mutations, TA100 [3] | further results |
| --- | --- | --- | --- | --- | --- | --- | --- | --- | --- | --- | --- | --- | --- | --- | --- | --- | --- | --- |
| CC(C)(Oc1cc(F)cc(-c2cc(N)nn2-c2cnc(C(F)(F)F)nc2)c1)C(F)(F)F [Metabolite 1] | 37 | 39 | 40 | 40 | 34 | 27 | 21 | 32 | 32 | 31 | 29 | 30 | 15 | 7 | – | – | – | – |
| Nc1cc(-c2cc(F)cc(OC(F)(F)F)c2)n(-c2cncc(F)c2)n1 [Metabolite 2] | 35 | 37 | 35 | 36 | 22 | 20 | 16 | 30 | 30 | 28 | 28 | 12 | 9 | 7 | – | – | – | – |
| Nc1cc(-c2cc(F)cc(OC(F)(F)F)c2)n(-c2cncc(C(F)(F)F)c2)n1 [Metabolite 3] | 36 | 38 | 38 | 33 | 27 | 25 | 17 | 29 | 28 | 29 | 26 | 24 | 18 | 14 | – | – | – | – |
| CC(C)(OCc1cc(F)cc(-c2cc(N)nn2-c2ccc(F)cc2)c1)C(F)(F)F [Metabolite A, reference compound] | – | – | – | – | – | – | – | – | – | – | – | – | – | – | had potential to induce reverse mutations | had potential to induce reverse mutations | – | – |
| Nc1cc(-c2cccc(OCC(F)(F)F)c2)n(-c2ccc(F)cc2)n1 [Metabolite B] | – | – | – | – | – | – | – | – | – | – | – | – | – | – | had potential to induce reverse mutations | had potential to induce reverse mutations | had potential to induce reverse mutations | potential to induce reverse mutations, TA1535 ([4]; in the presence of S9 mix): had potential to induce reverse mutations; potential to induce reverse mutations, TA1537 ([2]; in the absence of S9 mix): had potential to induce reverse mutations |
| Cc1ccc(-n2nc(N)cc2-c2cccc(OCC(F)(F)F)c2)cc1 [Metabolite C] | – | – | – | – | – | – | – | – | – | – | – | – | – | – | had potential to induce reverse mutations | had potential to induce reverse mutations | had potential to induce reverse mutations | potential to induce reverse mutations, WP2uvrA (Escherichia coli WP2uvrA): had potential to induce reverse mutations |
| Nc1cc(-c2cccc(OC(F)(F)F)c2)n(-c2cccc(F)c2)n1 [Metabolite D] | – | – | – | – | – | – | – | – | – | – | – | – | – | – | – | – | had potential to induce reverse mutations | potential to induce reverse mutations, TA1535 ([4]; in the absence of S9 mix): had potential to induce reverse mutations |
| Cc1cccc(-n2nc(N)cc2-c2cccc(OC(F)(F)F)c2)c1 [Metabolite E] | – | – | – | – | – | – | – | – | – | – | – | – | – | – | had potential to induce reverse mutations | had potential to induce reverse mutations | had potential to induce reverse mutations | – |

Source: patent US20220048896A1, “PYRAZOLE COMPOUNDS SUBSTITUTED WITH HETEROARYL AND PHARMACEUTICAL USE THEREOF” (Japan Tobacco Inc., priority 2018, published 2022)
